{"source": "patent US10933043B2", "about": "“Methods of treating neurodevelopmental diseases and disorders” (Deakin University, priority 2014, dated 2021)", "key": {"[1]": {"system": "neurons in the somatosensory cortex", "test": "Dendritic length of neurons in the somatosensory cortex of treated mice", "format": "in vivo, mouse", "conditions": "BPA exposed mice with 10-HDA treatment"}, "aromatase": {"system": "aromatase", "test": "Aromatase immunohistochemistry in human neuroblastoma SH-SY5Y cells exposed to BPA with or without 10-HDA", "format": "cell-based", "conditions": "for effect on BPA-induced changes of aromatase expression pattern and neurites: 25 μg/L BPA + 1 mM 10 HDA", "method": "FIG. 1: Effects of BPA and 10-HDA on aromatase expression in human neuroblastoma SH-SY5Y cells. Under normal conditions, SH-SY5Y cells express aromatase which is a membrane bound protein in endoplasmic reticulum, and appears as green punctate staining eventually distributed within the cell by immunohistochemistry. In the presence of 25 μg/L bisphenol A the aromatase became aggregates. The effects of bisphenol A can be ameliorated by addition of 10HDA. (a) +0 μg/L BPA (Vehicle)—Clear staining of aromatase (green) evenly distributed in the cytoplasm and along the neurites, as tiny “dots”. A lot of healthy cells evenly distributed over the surface area of the coverslip. B-tubulin (red) is highly expressed throughout the cytoplasm and neurites. […] A decrease in 13-tubulin expression was also observed in most cells that have lost their neurites. […] (c) +25 μg/L BPA+1 mM 10 HDA—Good neurite growth and even aromatase distribution throughout the cytoplasm was observed.\nHuman neuroblastoma SHY-SY-5Y cells were cultured were cultured in Dulbecco's Modified Eagle Medium supplemented with 10% heat-inactivated Fetal Bovine Serum, 1% penicillin and 1% L-Glutamine at 37° C. in a humidified atmosphere of 95% air and 5% CO2. The localization of aromatase in these cells can be detected using immunohistochemistry with antibody specific to aromatase. Under normal conditions, aromatase appears as punctuate staining throughout the cells, as it is a membrane bound protein in the endoplasmic reticulum."}, "[2]": {"system": "differentiated mouse motor neuronal NSC-34 cells", "test": "Protection of NSC-34 cells from toxic BPA exposure, MTT assay", "format": "cell-based", "conditions": "1 mM compound, 500 ng/ml of BPA, MTT assay 72 hours later", "method": "To compare the respective activities of trans and cis 10-HDA 1 mM respectively of cis or trans 10-HDA in the presence of 500 ng/ml of BPA (toxic level) was added to differentiated mouse motor neuronal NSC-34 cells. Cell survival was determined by MTT assay 72 hours later."}, "primary cortical culture": {"system": "primary cortical culture", "test": "Primary cortical cell cultures of male mouse embryonic foetuses: dendritic length and spine densities", "format": "cell-based", "method": "Primary cortical culture was prepared from male mouse foetuses at embryonic day 15.5. Specifically, the effects of BPA and 10-HDA on dendritic length and spine densities were assessed. Four test groups were assessed, mice treated with BPA, mice treated with 10-HDA, mice treated with BPA and 10-HDA, and a vehicle control. Ten neurons were measured and the experiments were duplicated."}, "BPA exposed mice": {"system": "BPA exposed mice", "test": "10-HDA treatment of BPA exposed mice: social interaction and spontaneous grooming", "format": "in vivo, mouse", "method": "As described in Example 2, mice with autistic-like behaviour were generated by mating female wild type FVBN mice with male CYP19-GFP mice and followed by subcutaneous injection of 50 […] of BPA on gestational days 10.5 to 14.5.\nAfter weaning, control and BPA exposed pups were administered 10-HDA daily (0 and 500 μg/kg/day; dissolved in saline) by intraperitoneal injection for a maximum period of 6 weeks. Six litters were initially studied after 3 weeks of daily treatment for anxiety, memory, social interaction (FIG. 4A) and spontaneous grooming.\nData collection was conducted by investigators who were blind to the respective genotypes or treatment of any given animal. Two criteria were assessed as the basis for the behavioural studies, social interaction, and spontaneous grooming activity.\n(§1) With regard to the social interaction study, the test mouse was placed in a social test box, a three-chambered clear plastic box with doorways in the dividing walls to allow access into each chamber. Each side-chamber contained a wire cage. The test mouse was evaluated over three sessions. In session 1, the test mouse was placed in the middle chamber and allowed to explore all 3 chambers for 10 min. In session 2, an unfamiliar same sex and age mouse (stranger 1) was enclosed in the wire cage either side of the central chamber, and the test mouse was allowed to explore the entire social test box for a period of 10 min. In session 3, a new unfamiliar mouse was placed in the previously empty wire cage such that the test mouse has a choice between the first, now familiar, already-investigated mouse (stranger 1) and the novel unfamiliar mouse (stranger 2). Mouse movements were recorded and tracked using the TopScan video tracking system. Durations in each chamber, time spent sniffing each wire cage, and the number of transitions between chambers were analysed.\nSpontaneous Grooming activity was used as a measure of repetitive activity. The spontaneous grooming of the mice were recorded by the TopScan video tracking system during the session 1 or the 3 chamber studies described above. The duration and frequency of grooming were the parameters of measurements and analysed blind.\nThe male animals were then re-administered with either vehicle or 10-HDA as described above for 3 weeks, and subjected to behavioural studies again (FIG. 4C)."}, "[3]": {"system": "aromatase cells in the amygdala", "test": "Patch clamping of aromatase cells in the amygdala in brain slices of treated mice", "format": "in vivo, mouse", "from_the_text": "After behaviour studies, the animals were sacrificed and electrophysiological data were gathered from the brain slices by patch clamping of aromatase cells in the amygdala."}, "mice": {"system": "mice", "test": "In utero BPA exposure of mice: offspring social interaction and stereology neuron counts", "format": "in vivo, mouse", "method": "BPA (50 μg/kg) was thus administered to pregnant mice mid-gestation (i.e. embryonic days 10.5 to 14.5). […] A further study was conducted to examine the effects of BPA exposure on numbers of aromatase-GFP positive neurons in utero (FIG. 3). The medial amygdala is involved in social interaction and highly expressed aromatase.\nas §1"}, "[4]": {"conditions": "BPA, male mouse embryonic day 15.5 cortical neurons"}}, "note": "“Also recorded” adds a separate entry of the source.", "data": [{"molecule": "O=C(O)/C=C/CCCCCCCO", "note": "[10-HDA, 10-hydroxy-2-decenoic acid]", "values": [{"measurement": "dendritic length of the neurons", "setting": "[1]", "result": "restored the dendritic length of the neurons in the somatosensory cortex to normal length"}, {"measurement": "effect on BPA-induced changes of aromatase expression pattern and neurites", "setting": "aromatase; SH-SY5Y cells", "result": "can protect against the denaturing effect of bisphenol A on aromatase"}, {"measurement": "effect on BPA-induced changes of aromatase expression pattern and neurites", "setting": "aromatase; SH-SY5Y cells, listed as 10HDA", "result": "ameliorates the effects of BPA on the expression pattern of aromatase and neurites"}, {"measurement": "cell survival (protection against BPA toxicity)", "setting": "[2]", "result": "exhibits neuroprotective effects"}, {"measurement": "effect against BPA on spine density and dendritic length", "setting": "primary cortical culture; BPA and 10-HDA", "result": "reverse or protect against the effect of BPA"}, {"measurement": "neurites and spines formation", "setting": "primary cortical culture; primary cortical culture", "result": "has the capacity to stimulate neurites and spines formation"}, {"measurement": "social interaction deficit and autistic-like behaviour", "setting": "BPA exposed mice; BPA exposed animals, 10-HDA 500 μg/kg/day intraperitoneal daily, 3 weeks", "result": "could ameliorate the social interaction deficit and autistic-like behaviour"}, {"measurement": "excessive grooming", "setting": "BPA exposed mice; BPA exposed male offspring, 10-HDA treatment 3 weeks", "result": "ameliorated"}, {"measurement": "social interaction after treatment withdrawal", "setting": "BPA exposed mice; BPA-exposed male animals, treatments withdrawn for 3 months", "result": "withdrawal led to presentation of social interaction deficit"}, {"measurement": "resistance of the neurons", "setting": "[3]; BPA exposed mice with 10-HDA treatment", "result": "restored resistance to normal"}]}, {"molecule": "O=C(O)/C=C\\CCCCCCCO", "note": "[cis 10-HDA]", "values": [{"measurement": "cell survival (protection against BPA toxicity)", "setting": "[2]", "result": "does not protect against BP toxicity"}]}, {"molecule": "CC(C)(c1ccc(O)cc1)c1ccc(O)cc1", "note": "[BPA, bisphenol A]", "values": [{"measurement": "ASD-like behaviours", "setting": "mice; BPA 50 μg/kg to pregnant mice embryonic days 10.5 to 14.5, WT male offspring", "result": "exhibit ASD-like behaviours"}, {"measurement": "time spent with the stranger mice (social interaction)", "setting": "mice; BPA 50 μg/kg to pregnant mice embryonic days 10.5 to 14.5, male offspring vs vehicle exposed male or BPA exposed female offspring", "result": "significantly less time"}, {"measurement": "numbers of aromatase-GFP positive neurons", "setting": "mice; BPA exposure in utero, standard Stereology method", "result": "significantly reduced"}, {"measurement": "fewer neurons in the medial amygdala", "setting": "mice; male offspring exposed to BPA", "result": 13.5, "unit": "%"}, {"measurement": "neurites", "setting": "aromatase; 25 μg/L BPA, SH-SY5Y cells", "result": "Some populations of cells are starting to lose their neurites"}, {"measurement": "β-tubulin expression", "setting": "aromatase; 25 μg/L BPA, SH-SY5Y cells that have lost their neurites", "result": "decrease"}, {"measurement": "aromatase localization/staining pattern", "setting": "aromatase; 25 μg/L BPA, SH-SY5Y cells, immunohistochemistry", "result": "aromatase forms aggregate and will lose its function; also recorded: could denature aromatase in vitro; also recorded: Aromatase aggregates start to form"}, {"measurement": "dendritic length of neurons", "setting": "primary cortical culture; [4]", "result": "decreased"}, {"measurement": "spine density", "setting": "primary cortical culture; [4]", "result": "decreased"}, {"measurement": "grooming", "setting": "BPA exposed mice; 50 μg/kg/day of BPA exposed male offspring", "result": "excessive grooming"}, {"measurement": "resistance of the neurons", "setting": "[3]; BPA exposure, patch clamping of brain slices", "result": "reduced the resistance of the neurons"}]}]}
